“And” between values parts separate entries of the source, which are not always exact repeats. Identical values can stand only once. Inconclusive results and toxic doses are left out. How the source made its calls: active means survival T/C of 150% or more; inactive means T/C below 125% in these data.
Tested on: P388 leukemia ip, CD2F1 mice, survival T/C
Assay: NCI In Vivo Anticancer Drug Screen. Data for tumor model P388 Leukemia (intraperitoneal) in CD2F1 (CDF1) mice
Conditions: endpoint: median survival time, higher = longer survival
How it was run: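 Mice carrying the transplanted tumor received test compound or vehicle. Survival was recorded in each group, and the value is the treated-group measurement divided by that of the vehicle-treated control group.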

[1] = dose: 60.0 mg/kg/injection, schedule: Q01DX005 (ip), vehicle: saline with Tween-80
[2] = dose: 120.0 mg/kg/injection, schedule: Q01DX005 (ip), vehicle: saline with Tween-80
[3] = dose: 240.0 mg/kg/injection, schedule: Q01DX005 (ip), vehicle: saline with Tween-80
[4] = dose: 60.0 mg/kg/injection, schedule: Q01DX005 (ip), vehicle: Klucel (hydroxypropylcellulose) (HPC)
[5] = dose: 120.0 mg/kg/injection, schedule: Q01DX005 (ip), vehicle: Klucel (hydroxypropylcellulose) (HPC)
[6] = dose: 240.0 mg/kg/injection, schedule: Q01DX005 (ip), vehicle: Klucel (hydroxypropylcellulose) (HPC)
[7] = dose: 50.0 mg/kg/injection, schedule: Q01DX005 (ip), vehicle: saline with Tween-80
[8] = dose: 100.0 mg/kg/injection, schedule: Q01DX005 (ip), vehicle: saline with Tween-80
[9] = dose: 200.0 mg/kg/injection, schedule: Q01DX005 (ip), vehicle: saline with Tween-80

Measured: T/C

COc1ccc(-c2nn(-c3ccccc3)cc2Oc2ccccc2O)cc1
inactive: [1] 104 % of control | [2] 102 % of control | [3] 96 % of control

CC(C)C(C)CS(=O)(=O)OCCCCOS(=O)(=O)CC(C)C(C)C (configuration not stated)
inactive: dose: 50.0 mg/kg/injection, schedule: Q01DX005 (ip), vehicle: suspension in saline 103 % of control | dose: 100.0 mg/kg/injection, schedule: Q01DX005 (ip), vehicle: suspension in saline 105 % of control | dose: 200.0 mg/kg/injection, schedule: Q01DX005 (ip), vehicle: suspension in saline 112 % of control

CC(C)(c1ccccc1)c1cc(CN2CCCCC2)c(O)c(CN2CCCCC2)c1
inactive: dose: 0.78 mg/kg/injection, schedule: Q01DX009 (ip), vehicle: saline 100 % of control and 95 % of control | dose: 1.56 mg/kg/injection, schedule: Q01DX009 (ip), vehicle: saline 104 % of control and 112 % of control | dose: 3.13 mg/kg/injection, schedule: Q01DX009 (ip), vehicle: saline 108 % of control and 113 % of control and 121 % of control | dose: 6.25 mg/kg/injection, schedule: Q01DX009 (ip), vehicle: saline 105 % of control and 90 % of control and 95 % of control | dose: 12.5 mg/kg/injection, schedule: Q01DX009 (ip), vehicle: saline 94 % of control | dose: 25.0 mg/kg/injection, schedule: Q01DX009 (ip), vehicle: saline with Tween-80 91 % of control | dose: 25.0 mg/kg/injection, schedule: Q01DX009 (ip), vehicle: saline 96 % of control | dose: 100.0 mg/kg/injection, schedule: Q01DX009 (ip), vehicle: saline with Tween-80 97 % of control

Cn1cc(-n2[nH]c(=O)n(-c3ccccc3)c2=O)c(=O)n(C)c1=O
inactive: dose: 50.0 mg/kg/injection, schedule: Q01DX009 (ip), vehicle: Klucel (hydroxypropylcellulose) (HPC) 101 % of control | dose: 100.0 mg/kg/injection, schedule: Q01DX009 (ip), vehicle: Klucel (hydroxypropylcellulose) (HPC) 101 % of control | dose: 200.0 mg/kg/injection, schedule: Q01DX009 (ip), vehicle: Klucel (hydroxypropylcellulose) (HPC) 96 % of control

CC1(C)Nc2ccccc2C(c2ccccc2)=NC1=O
inactive: [4] 101 % of control and 102 % of control | [5] 105 % of control and 98 % of control | [6] 104 % of control and 91 % of control

O=C1c2ccccc2-c2cc(Br)c(N=Cc3c[nH]c4ccccc34)cc21
inactive: [7] 105 % of control | [8] 95 % of control | [9] 89 % of control

CC1CC2OC(/C=C/C=C/C=C/C=C\C=C\C(O)=C3/C(=O)C(C(C)C)N(C)C3=O)C(O)C2O1 (configuration not stated)
inactive: dose: 310.0 micrograms/kg/injection, schedule: Q01DX005 (ip), vehicle: saline with Tween-80 99 % of control | dose: 625.0 micrograms/kg/injection, schedule: Q01DX005 (ip), vehicle: saline with Tween-80 94 % of control | dose: 1250.0 micrograms/kg/injection, schedule: Q01DX005 (ip), vehicle: saline with Tween-80 101 % of control | dose: 2500.0 micrograms/kg/injection, schedule: Q01DX005 (ip), vehicle: saline with Tween-80 99 % of control | dose: 5000.0 micrograms/kg/injection, schedule: Q01DX005 (ip), vehicle: saline with Tween-80 99 % of control

N#Cc1c(=O)n(O)c2ccccc2[n+]1[O-]
inactive: dose: 25.0 mg/kg/injection, schedule: Q01DX005 (ip), vehicle: saline with Tween-80 94 % of control | [7] 97 % of control | [8] 106 % of control | [9] 102 % of control | dose: 400.0 mg/kg/injection, schedule: Q01DX005 (ip), vehicle: saline with Tween-80 93 % of control

OCC1OC2NC(=S)OC2C1O (configuration not stated)
inactive: dose: 50.0 mg/kg/injection, schedule: Q01DX009 (ip), vehicle: saline 100 % of control | dose: 100.0 mg/kg/injection, schedule: Q01DX009 (ip), vehicle: saline 100 % of control | dose: 200.0 mg/kg/injection, schedule: Q01DX009 (ip), vehicle: saline 95 % of control

Cc1ccc(C(O)(c2ccc(C)cc2)C(C)(C)O)cc1
inactive: [1] 98 % of control | [2] 100 % of control | [3] 103 % of control

CC(C)OC(=O)NN(C(=O)OC(C)C)N(C)C
inactive: [4] 100 % of control | [5] 100 % of control | [6] 103 % of control
